Holding throughout (format): in vivo
Data set [1] has as its system rats (secondary arthritis pain, mycobacterium smegmae). Kind of data set: Arthritis Pain Test in Rats. As to conditions: po, rat, p.o., 3 hours after administration, protection in 50% of treated animals. Here is the method:
(§1) This analgesic activity has been evaluated in two pharmacological standard methods, the tail flick test in mice and the arthritis pain test in rats.
2. Arthritis Pain Test in Rats.
Male rats having a weight of from 160 to 180 g are anesthetized by small i.p. injection of 20 mg/kg of sodium pentobarbital and 0.1 ml of a suspension of mycobacterium smegmae (SI 043) in liquid paraffin (0.6 mg mycobacterium/0.1 ml of oil) are injected intracutaneously into the left rear paw. Fourteen days later when a marked secondary arthritis has developed in particular in the right rear paw, the effect of the test compound is evaluated. A control-reading is taken 30 minutes prior to administration of the test compound by bending the foot joint of the right rear paw three times and counting the number of squeakings. […] Three hours after oral administration of the test compound the bending of the joint is repeated. Animals which squeak only once or not at all are considered to be protected against pain. Between about 9 and 20 rats are used per dose and the ED50 (95% reliability) is determined according to the method of Litchfield and Wilcoxon (1949). The dose which provides protection in 50% of the treated animals is taken as ED50.

A further data set deals with male mice. As to the kind of experiment: Determination of the Minimal Toxic Dose (oral, mice). The following applies: mouse, p.o.; observed 3 h, symptoms and deaths over 24 h. Here is the method: 1. Determination of the Minimal Toxic Dose.
Maximum doses of 300 mg/kg of the test compound are administered orally to three male mice having a weight of 20-25 g and toxicity symptoms are carefully observed for a period of three hours. Furthermore, over a period of 24 hours from the administration all symptoms and deaths are registered. Side-symptoms are also observed and registered. Depending on their water solubility, the test compounds are administered either in form of aqueous solutions or in form of suspensions without the use of solvents. In order to maintain a stable suspension of the test compound, one drop of Tween-80 can be added and the mixture can be mechanically homogenized. In the case of compounds where deaths or toxic symptoms have been observed, additional mice are treated with decreasing doses until a dose is reached at which no toxic symptoms occur. The lowest dose which causes toxic symptoms is considered the minimal toxic dose.

In data set [2] the test system is mice (tail flick, heat beam pain reaction). Kind of data set: Tail flick Test in Mice. As to conditions: sc, 0.5 h; mouse, s.c.; 30 minutes after administration; >75% increase of reaction time in 50% of animals. How it is done:
as §1
3. Tail flick Test in Mice.
This test is carried out according to the method described by D'Amour and Smith (1941), yet fed male and female mice having a body weight of 16 to 25 g are used instead of rats. Thirty minutes prior to treatment with the test compound, each mouse is placed separately in a cylindrical container in such a manner that it cannot turn itself or move forward. Its tail is positioned in a narrow groove projecting out of the container. A certain point of the tail of each animal (about 35 mm beyond the root of the tail) is subjected to the heat beam of a lamp of known strength and temperature which is positioned directly under the tail. The number of seconds which pass before the mouse moves its tail out of the light beam is determined twice, once 30 minutes and once 15 minutes prior to subcutaneous administration of the test compound (10 mg/kg). Mice which show a reaction time differing more than 25% are eliminated from the test. The reaction time is again determined 15 minutes and 30 minutes after the treatment and an increase of the reaction period of more than 75% of the average values prior to treatment in the same animal is considered as showing an analgesic effect. The ED50 (95% reliability) of each test compound 30 minutes after administration is evaluated according to the method of Litchfield and Wilcoxon (1949). The dose which increases the reaction time as compared to the reaction time prior to treatment for more than 75% in 50% of the animals is considered as ED50.
A general note: In hot-plate and tail-flick tests a longer latency is read as antinociception.

A value given as a limit tells only on which side of the number the result lay.

`CN1c2ccccc2C(c2ccccc2)=NCC1CNC(=O)c1cccs1` (stereo not shown) [Compound 1, 1-methyl-2-[(thiophene-2-carbonyl)-aminomethyl]-5-phenyl-1H-2,3-dihydro-1,4-benzodiazepine]: the results for the median effective dose (ED50) in data set [1] and in data set [2] were 13 mg/kg and 2.8 mg/kg, respectively. Also, the “MDL (minimal toxic dose)” value with male mice is reported as over 300 mg/kg.
Take `CN1c2ccccc2C(c2ccccc2)=NCC1CNC(=O)c1ccco1` (stereo not shown) [Compound 2, 1-methyl-2-[(furane-2-carbonyl)-aminomethyl]-5-phenyl-1H-2,3-dihydro-1,4-benzodiazepine]: the ED50 in data set [1] was 32 mg/kg; in data set [2], 2.8 mg/kg. Moreover, in the data set with male mice, the “MDL (minimal toxic dose)” value is over 300 mg/kg.
As to `COc1ccc2c(c1)N(C)C(CNC(=O)c1cccs1)CN=C2c1ccccc1` (stereo not shown) [Compound 3, 8-methoxy-1-methyl-2-[(thiophene-2-carbonyl)-aminomethyl]-5-phenyl-1H-2,3-dihydro-1,4-benzodiazepine], the ED50 in data set [1] was 20 mg/kg; in data set [2], 5.3 mg/kg. In the data set with male mice, the “MDL (minimal toxic dose)” value is on record as over 200 mg/kg.
For `COc1ccc2c(c1)N(C)C(CNC(=O)c1ccco1)CN=C2c1ccccc1` (stereo not shown) [Compound 4, 8-methoxy-1-methyl-2-[(furane-2-carbonyl)-aminomethyl]-5-phenyl-1H-2,3-dihydro-1,4-benzodiazepine], the figures for the ED50 in data set [1] and in data set [2] were 21 mg/kg and 7 mg/kg, respectively. In the data set on male mice, the “MDL (minimal toxic dose)” value is reported as over 200 mg/kg.
For the compound `COc1ccc2c(c1)N(C)C(CNC(=O)c1ccsc1)CN=C2c1ccccc1` (stereo not shown) [Compound 5, 8-methoxy-1-methyl-2-[(thiophene-3-carbonyl)-aminomethyl]-5-phenyl-1H-2,3-dihydro-1,4-benzodiazepine], the results for the ED50 in data set [1] and in data set [2] were 15 mg/kg and 2.4 mg/kg, respectively. Besides, the “MDL (minimal toxic dose)” value with male mice is recorded as over 200 mg/kg.
The matching figures for `COc1ccc2c(c1)N(C)C(CNC(=O)c1ccoc1)CN=C2c1ccccc1` (stereo not shown) [Compound 6, 8-methoxy-1-methyl-2-[(furane-3-carbonyl)-aminomethyl]-5-phenyl-1H-2,3-dihydro-1,4-benzodiazepine]: 9 mg/kg, 2.8 mg/kg and over 50 mg/kg.
Turning to `CN1c2ccccc2C(c2ccccc2)=NCC1CNC(=O)c1ccsc1` (stereo not shown) [Compound 7, 1-methyl-2-[(thiophene-3-carbonyl)-aminomethyl]-5-phenyl-1H-2,3-dihydro-1,4-benzodiazepine], the ED50 in data set [1] worked out at 19 mg/kg; in data set [2], 0.22 mg/kg. Further, in the data set on male mice, the “MDL (minimal toxic dose)” value was over 200 mg/kg.
Take `Cc1cc2c(cc1C)N(C)C(CNC(=O)c1ccoc1)CN=C2c1ccccc1` (stereo not shown) [Compound 8, 1,7,8-trimethyl-2-[(furane-3-carbonyl)-aminomethyl]-5-phenyl-1H-2,3-dihydro-1,4-benzodiazepine]: the median effective dose (ED50) in data set [1] worked out at 14 mg/kg; in data set [2], 8 mg/kg. For the same compound, the “MDL (minimal toxic dose)” value in the data set with male mice is recorded as over 200 mg/kg.
For `COc1ccc2c(c1)N(C)C(CNC(=O)c1ccc(C)s1)CN=C2c1ccccc1` (stereo not shown) [Compound 9, 8-methoxy-1-methyl-2-[(5-methylthiophene-2-carbonyl)-aminomethyl]-5-phenyl-1H-2,3-dihydro-1,4-benzodiazepine], the 50% effective dose (ED50) in data set [1] stood at 14 mg/kg; in data set [2], 5.6 mg/kg. In addition, in the data set with male mice, the “MDL (minimal toxic dose)” value was over 200 mg/kg.
As to `Cc1ccc2c(c1)C(c1ccccc1)=NCC(CNC(=O)c1ccsc1)N2C` (stereo not shown) [Compound 10, 1,7-dimethyl-2-[(thiophene-3-carbonyl)-aminomethyl]-5-phenyl-1H-2,3-dihydro-1,4-benzodiazepine], the results for the ED50 in data set [1] and in data set [2] were 32 mg/kg and 3.2 mg/kg, respectively. Besides, in the data set with male mice, the “MDL (minimal toxic dose)” value is given as over 300 mg/kg.
As for `Cc1ccc2c(c1)C(c1ccccc1)=NCC(CNC(=O)c1ccoc1)N2C` (stereo not shown) [Compound 11, 1,7-dimethyl-2-[(furane-3-carbonyl)-aminomethyl]-5-phenyl-1H-2,3-dihydro-1,4-benzodiazepine], the figures for the ED50 in data set [1] and in data set [2] were 30 mg/kg and 1.2 mg/kg, respectively. Besides, the “MDL (minimal toxic dose)” value in the data set on male mice is listed as over 300 mg/kg.
The corresponding values for `Cc1ccc(C(=O)NCC2CN=C(c3ccccc3)c3ccccc3N2C)s1` (stereo not shown) [Compound 12, 1-methyl-2-[(5-methylthiophene-2-carbonyl)-aminomethyl]-5-phenyl-1H-2,3-dihydro-1,4-benzodiazepine] are 10 mg/kg, 2.8 mg/kg and over 300 mg/kg.
Turning to `CCOc1ccc2c(c1)N(C)C(CNC(=O)c1ccoc1)CN=C2c1ccccc1` (stereo not shown) [Compound 13, 8-ethoxy-1-methyl-2-[(furane-3-carbonyl)-aminomethyl]-5-phenyl-1H-2,3-dihydro-1,4-benzodiazepine], the 50% effective dose (ED50) in data set [1] stood at 15 mg/kg; in data set [2], 6 mg/kg. In the data set on male mice, the “MDL (minimal toxic dose)” value is listed as over 200 mg/kg.
For `COc1cccc(C2=NCC(CNC(=O)c3ccco3)N(C)c3ccccc32)c1` (stereo not shown) [Compound 14, 1-methyl-2-[(furane-2-carbonyl)-aminomethyl]-5-(3-methoxyphenyl)-1H-2,3-dihydro-1,4-benzodiazepine], the figures for the ED50 in data set [1] and in data set [2] were 32 mg/kg and 1.6 mg/kg, respectively. Further, the “MDL (minimal toxic dose)” value in the data set on male mice is given as over 300 mg/kg.
For `COc1ccc2c(c1)C(c1ccccc1)=NCC(CNC(=O)c1ccoc1)N2C` (stereo not shown) [Compound 15, 7-methoxy-1-methyl-2-[(furane-3-carbonyl)-aminomethyl]-5-phenyl-1H-2,3-dihydro-1,4-benzodiazepine], the ED50 in data set [1] came to 32 mg/kg; in data set [2] it was 8.5 mg/kg. Moreover, in the data set with male mice, the “MDL (minimal toxic dose)” value is recorded as over 300 mg/kg.
The matching figures for `COc1cccc(C2=NCC(CNC(=O)c3ccsc3)N(C)c3ccccc32)c1` (stereo not shown) [Compound 16, 1-methyl-2-[(thiophene-3-carbonyl)-aminomethyl]-5-(3-methoxyphenyl)-1H-2,3-dihydro-1,4-benzodiazepine]: 32 mg/kg, 0.5 mg/kg and over 300 mg/kg.
The corresponding values for `CCN1c2ccccc2C(c2ccccc2)=NCC1CNC(=O)c1ccoc1` (stereo not shown) [Compound 17, 1-ethyl-2-[(furane-3-carbonyl)-aminomethyl]-5-phenyl-1H-2,3-dihydro-1,4-benzodiazepine] are 22 mg/kg, 2.6 mg/kg and over 200 mg/kg.
Consider `CN1c2ccccc2C(c2ccccc2F)=NCC1CNC(=O)c1ccco1` (stereo not shown) [Compound 18, 1-methyl-2-[(furane-2-carbonyl)-aminomethyl]-5-(2-fluorophenyl)-1H-2,3-dihydro-1,4-benzodiazepine], for which the ED50 in data set [1] turned out to be 18 mg/kg; in data set [2] it was 4.1 mg/kg. Further, the “MDL (minimal toxic dose)” value in the data set on male mice is recorded as over 300 mg/kg.
Regarding `CN1c2ccccc2C(c2ccccc2F)=NCC1CNC(=O)c1ccoc1` (stereo not shown) [Compound 19, 1-methyl-2-[(furane-3-carbonyl)-aminomethyl]-5-(2-fluorophenyl)-1H-2,3-dihydro-1,4-benzodiazepine], the figures for the ED50 in data set [1] and in data set [2] were 13 mg/kg and 0.56 mg/kg, respectively. For the same compound, in the data set on male mice, the “MDL (minimal toxic dose)” value is over 300 mg/kg.
Turning to `COc1ccc2c(c1)N(C)C(CNC(=O)c1ccc(Br)s1)CN=C2c1cccc(F)c1` (stereo not shown) [Compound 48, 8-methoxy-1-methyl-2-[(5-bromothiophene-2-carbonyl)-aminomethyl]-5-(3-fluorophenyl)-1H-2,3-dihydro-1,4-benzodiazepine], the figures for the ED50 in data set [1] and in data set [2] were under 18 mg/kg and over 5.6 mg/kg, respectively.
Regarding `COc1ccc2c(c1)N(C)C(CNC(=O)c1ccc(Br)s1)CN=C2c1ccc(F)cc1` (stereo not shown) [Compound 49, 8-methoxy-1-methyl-2-[(5-bromothiophene-2-carbonyl)-aminomethyl]-5-(4-fluorophenyl)-1H-2,3-dihydro-1,4-benzodiazepine], the median effective dose (ED50) in data set [1] was under 18 mg/kg; in data set [2], over 5.6 mg/kg.

What is called ED50 is the midpoint of the dose-response relation. Lower therefore signals greater potency.

Source of the values: US4382030A, “2-Acylaminomethyl-1,4-benzodiazepine derivatives and their salts, pharmaceutical compositions thereof and process for their preparation” (Kali-Chemie Pharma GmbH, priority 1979, dated 1983).
